# Reference: patent EP3833345B1, “SMALL MOLECULE-INHIBITORS OF 6-PHOSPHOFRUCTO-1-KINASE FOR REDUCING LACTATE GENERATION BY CANCER CELLS” (Kemijski Institut, priority 2018, dated 2020)
# Entries after “also recorded” stand apart in the source; their conditions may differ.
# Legend:
# [1] = system: Jurkat cells; test: growth and survival of Jurkat cells (Countess, Trypan blue); type: cell-based
# Experimental: The effects of both inhibitors were tested also on growth of the non-adherent Jurkat cells. Total amount of cells and the number of dead cells was determined by the Countess (Invitrogen, Carlsbad, CA). […].
# [2] = system: Jurkat cells; test: Seahorse XF assay (ECAR and OCR) in Jurkat cells; type: cell-based, human; settings: 100 µM added 24 hours before the experiment; treated versus untreated cells
# Experimental: The efficiency of Inhibitors No. 3 and No. 9 was also tested by the determinations of glycolytic capacities in Jurkat cells in the presence and absence of inhibitors. For this purpose, Seahorse XF assay (Agilent Technology) was performed that enables non-destructive measurements of extracellular acidification rate (ECAR) and oxygen consumption rate (OCR) of tested cells. The cells were incubated in […] GlutaMAX medium with 10% FBS and 24 hours before the experiment inhibitors were added (100 µM). Non-adherent Jurkat cells (1×10^6 per mL) were stuck to the bottom of the wells by poly-I-lysine. The experiment was conducted essentially as recommended by Seahorse XF protocol and after 20 minutes of incubation, 1 µM of oligomycin A (ATP synthase inhibitor) and 0,25 µM of Carbonyl cyanide-4-(trifluoromethoxy)phenylhydrazone (FCCP) (mitochondrial oxidative phosphorylation uncoupler) were added to the cells. […] Reduced lactate excretion by the cells treated with both inhibitors might be responsible for reduced ECARs. Although the addition of oligomycin A and FCCP increased the extracellular acidification rate by the cells treated with both inhibitors, similar increase of ECAR was also observed in the untreated cells. […] It implies that inhibited PFK1 enzymes might reduce glycolytic flux and prevent the need for pyruvate reduction into lactate by re-oxidizing redundant cytosolic NADH. Under such conditions pyruvate can enter mitochondria, replenishing tri-carboxylic acids (TCA) cycle and fuelling oxidative respiration.
# [3] = system: MCF-10A cell line; test: lactate excretion by non-tumorigenic MCF-10A cells; type: cell-based
# Experimental: (§1) The effect of Inhibitor No. 3 on lactate excretion was tested also on two non-tumorigenic cell lines. First, fast proliferating human embryonic kidney (HEK 293) cells were assessed for lactate formation in the presence of Inhibitor No. 3. RPMI 1640 GlutaMAX medium (Thermo Fisher) supplemented with 10% FBS was used as a growth medium. […] About 95 mg/L of lactate were detected after 72 hours of incubation by untreated cells (control) and by the cells growing in the presence of Inhibitor No. 3 (Figure 9a). Similar results were recorded also by non-tumorigenic MCF-10A cell line isolated form the epithelial cells of the mammary gland. The cells were cultivated in MEBM medium supplemented by additives that were obtained as a MEGM Kit from Lonza/Clonetics Corporation. Characteristically these cells grew slower than HEK 293 cells with correspondingly slower lactate excretion rate. After 96 hours of incubation, only about 27 mg/L of lactate was detected in the medium. Again, no influence of different concentrations of Inhibitor No. 3 on lactate generation could be observed (Figure 9b).
# [4] = system: human embryonic kidney (HEK 293) cells; test: lactate excretion by non-tumorigenic HEK 293 cells; type: cell-based
# Experimental: as §1
# [5] = system: Jurkat cells; test: lactate excretion by Jurkat cells (enzymatic L-lactic acid kit); type: cell-based, human
# Experimental: The cells were incubated in 1 mL volume (24 well plates) at 5% CO2 and 37°C. The inhibitors were added in 100 µM concentration. As a control, equivalent amount of DMSO as used for the addition of inhibitors was supplemented to the medium. The tests started with 1×10^5 cells per mL. Extracellular lactate excreted by the Jurkat cells was measured in the supernatant of the growth medium after the cells were removed by centrifugation at 1500 rpm for 5 minutes. Lactate concentration was determined enzymatically using L-Lactatic acid kit (K-LATE, Megazyme, Ireland).
# Measurements of lactate excretion in the tumorigenic Jurkat cells and the cells treated with two selected inhibitors at different concentrations were repeated by more detailed measurements. The growth conditions were identical to those described in Experiment 2. No significant difference in lactate excretion could be observed by the treated and untreated cells during the initial stage of growth that lasted for approximately 12 hours. Later on lactate excretion by the Jurkat cells ceased in the presence of both inhibitors.
# [6] = system: Caco-2 cells; test: cytotoxicity in Caco-2 cells (lactate dehydrogenase (LDH) kit); type: cell-based
# Experimental: Lactate generation, growth yield and survival under normal and inhibitory conditions of three different tumorigenic cells lines were determined in more detailed measurements. […] Cytotoxicity was measured by the Lactate dehydrogenase (LDH) kit (Roche).
# [7] = system: Jurkat cells; test: NADH levels in Jurkat cells (NADH/NAD fluorometric assay kit); type: cell-based, human; settings: 24 hours after addition, different concentrations
# Experimental: By inhibiting modified PFK-M enzyme in the cancer cells, glycolytic flux should be decreased and concomitantly NADH levels reduced. To verify that, the amounts of reduced pyridine nucleotide was measured by NADH/NAD fluorometric assay kit (Abcam). The Jurkat cells were seeded into the wells of 96 wells plate at 5×10^5 cells per mL. The untreated cells (control) and the cells with specified amounts of added Inhibitors No. 3 and No. 9 were incubated for 24 hours.
smiles,measurement,setting,value
"O=C(CSc1nnc(-c2ccc3c(c2)OCO3)o1)Nc1ccon1 [Inhibitor No. 3, 2-[(5-benzo[1,3]dioxol-5-yl-1,3,4-oxadiazol-2-yl)sulfanyl]-N-isoxazol-3-yl-acetamide]",dead cells,[1]; Jurkat cells stained with Tripan blue,"3,21±0,27%"
same,effect on growth of Jurkat cells (total cell numbers),"[1]; different concentrations, 72 hours",remarkable reduction of growth rate at concentrations higher than 25 µM
same,ECAR and OCR values prior to the addition of oligomycin A and FCCP,[2],untreated Jurkat cells revealed higher ECAR and OCR values
same,"lactate detected in the medium, MCF-10A","[3]; after 96 hours of incubation, no influence of inhibitor concentration",about 27 mg/L
same,"influence on lactate generation, MCF-10A","[3]; different concentrations, 96 hours",no influence
same,"reduction of lactate generation, HEK 293","[4]; 72 hours of growth, different concentrations of inhibitor",no significant reduction of lactate generation
same,"lactate detected, HEK 293","[4]; after 72 hours of incubation, same for untreated control",About 95 mg/L
same,time at which lactate production was averted,[5]; inhibitor concentrations lower than 200 µM,about 24 hours
same,lactate excretion by the Jurkat cells,"[5]; preliminary test, 100 µM inhibitor, followed for 48 hours, versus DMSO control",Significantly lowered lactate excretions; also recorded: effectively prevented excretion
same,"average percentages of dead cells, Caco-2, sequential re-insertion","[6]; sequential addition at 24-hour intervals, 92 hours, average over medium without and with inhibitor","5,38±0,4%"
same,"average percent of dead cells, Caco-2","[6]; single addition, average over control and different concentrations of inhibitor","3,99±0,08%"
same,NADH levels,[7],steadily decreased in dose dependent manner
